Experimental data reported in patent publication US11530199B2, “Analogs for the treatment of disease” (Insilico Medicine IP Limited, priority 2021, dated 2022).

Assay: Metabolic stability in human liver microsomes;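 further: NADPH-supplemented incubation in 100 mM potassium phosphate buffer, compound loss sampled at 0, 5, 10, 20, 30 and 60 min by LC-MS/MS, first-order kinetics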
Assay type: in vitro ADME
Details: LM Clint; human liver microsomes 0.5 mg protein/mL, test compound 1 μM, 37° C., up to 60 min

SMILES | Human Liver Microsome (μM/min/mg)
CC(C)n1cnc(-c2ccc(F)cc2)c1-c1nc(C(=O)Nc2ccc(CCC(=O)O)cc2)c[nH]1 [Compound 102, 3-(4-(5′-(4-fluorophenyl)-3′-isopropyl-1H,3′H-[2,4′-biimidazole]-4-carboxamido)phenyl)propanoic acid] | +++ (1-10 μM/min/mg as +++)
CC(C)n1cnc(-c2ccc(F)cc2)c1-c1nc(C(=O)Nc2ccc(CCO)cc2)c[nH]1 [Compound 111, 5′-(4-fluorophenyl)-N-(4-(2-hydroxyethyl)phenyl)-3′-isopropyl-1H,3′H-[2,4′-biimidazole]-4-carboxamide] | ++ (10-100 μM/min/mg as ++)
CC(C)n1cnc(-c2ccc(F)cc2)c1-c1nc(C(=O)Nc2ccc(C(=O)O)cc2)c[nH]1 [Compound 113, 4-(5′-(4-fluorophenyl)-3′-isopropyl-1H,3′H-[2,4′-biimidazole]-4-carboxamido)benzoic acid] | +++ (1-10 μM/min/mg as +++)
CC(C)n1cnc(-c2ccc(F)cc2)c1-c1nc(C(=O)Nc2ccc(N(CCO)CCO)cc2)c[nH]1 [Compound 116, N-(4-(bis(2-hydroxyethyl)amino)phenyl)-5′-(4-fluorophenyl)-3′-isopropyl-1H,3′H-[2,4′-biimidazole]-4-carboxamide] | +++ (1-10 μM/min/mg as +++)
CC(C)n1cnc(-c2ccc(F)cc2)c1-c1ccc(C(=O)Nc2ccc(N3CCN(C)CC3)cc2)o1 [Compound 121, 5-(4-(4-fluorophenyl)-1-isopropyl-1H-imidazol-5-yl)-N-(4-(4-methylpiperazin-1-yl)phenyl)furan-2-carboxamide] | + (>100 μM/min/mg as)
CC(C)n1cnc(-c2ccc(F)cc2)c1-c1ccc(C(=O)Nc2ccc(CCO)cc2)o1 [Compound 126, 5-(4-(4-fluorophenyl)-1-isopropyl-1H-imidazol-5-yl)-N-(4-(2-hydroxyethyl)phenyl)furan-2-carboxamide] | + (>100 μM/min/mg as)
CC(C)n1cnc(-c2ccc(F)cc2)c1-c1cccc(C(=O)Nc2ccc(N3CCN(C)CC3)cc2)n1 [Compound 127] | + (>100 μM/min/mg as)
CC(C)n1cnc(-c2ccc(F)cc2)c1-c1cccc(C(=O)Nc2ccc(N3CCN(CCO)CC3)cc2)n1 [Compound 128] | + (>100 μM/min/mg as)
CC(C)n1cnc(-c2ccc(F)cc2)c1-c1cccc(C(=O)Nc2ccc(CCC(=O)O)cc2)n1 [Compound 131] | +++ (1-10 μM/min/mg as +++)
CC(C)n1cnc(-c2ccc(F)cc2)c1-c1nc(C(=O)Nc2ccc(CCCCC(=O)O)cc2)c[nH]1 [Compound 132, 5-(4-(5′-(4-fluorophenyl)-3′-isopropyl-1H,3′H-[2,4′-biimidazole]-4-carboxamido)phenyl)pentanoic acid] | +++ (1-10 μM/min/mg as +++)
CC(C)n1cnc(-c2ccc(Cl)cc2)c1-c1nc(C(=O)Nc2ccc(CCC(=O)O)cc2)c[nH]1 [Compound 137, 3-(4-(5′-(4-chlorophenyl)-3′-isopropyl-1H,3′H-[2,4′-biimidazole]-4-carboxamido)phenyl)propanoic acid] | +++ (1-10 μM/min/mg as +++)
CC(C)n1cnc(-c2ccc(Cl)cc2)c1-c1nc(C(=O)Nc2ccc(N3CCN(CCO)CC3)cc2)c[nH]1 [Compound 139, 5′-(4-chlorophenyl)-N-(4-(4-(2-hydroxyethyl)piperazin-1-yl)phenyl)-3′-isopropyl-1H,3′H-[2,4′-biimidazole]-4-carboxamide] | ++ (10-100 μM/min/mg as ++)
CC(C)n1cnc(-c2ccc(F)c(F)c2)c1-c1nc(C(=O)Nc2ccc(N3CCN(CCO)CC3)cc2)c[nH]1 [Compound 146, 5′-(3,4-difluorophenyl)-N-(4-(4-(2-hydroxyethyl)piperazin-1-yl)phenyl)-3′-isopropyl-1H,3′H-[2,4′-biimidazole]-4-carboxamide] | ++ (10-100 μM/min/mg as ++)
CC(C)n1cnc(-c2ccc(F)c(F)c2)c1-c1nc(C(=O)Nc2ccc(N3CCN(C)CC3)cc2)c[nH]1 [Compound 156, 5′-(3,4-difluorophenyl)-3′-isopropyl-N-(4-(4-methylpiperazin-1-yl)phenyl)-1H,3′H-[2,4′-biimidazole]-4-carboxamide] | ++ (10-100 μM/min/mg as ++)
O=C(Nc1ccc(N2CCN(CCO)CC2)cc1)c1c[nH]c(-c2c(-c3ccc(F)cc3)ncn2[C@H]2CC[C@H](O)CC2)n1 [Compound 158, 5′-(4-fluorophenyl)-3′-((1r,4r)-4-hydroxycyclohexyl)-N-(4-(4-(2-hydroxyethyl)piperazin-1-yl)phenyl)-1H,3′H-[2,4′-biimidazole]-4-carboxamide] | +++ (1-10 μM/min/mg as +++)
CC(C)n1cnc(-c2ccc(F)cc2)c1-c1nc(C(=O)Nc2ccc(N3CCNCC3)cc2)c[nH]1 [Compound 181, 5′-(4-fluorophenyl)-3′-isopropyl-N-(4-(piperazin-1-yl)phenyl)-1H,3′H-[2,4′-biimidazole]-4-carboxamide] | ++ (10-100 μM/min/mg as ++)

More lines, now with the values ahead:

Human Liver Microsome (μM/min/mg) | SMILES
+ (>100 μM/min/mg as) | CC(C)n1cnc(-c2ccc(F)cc2)c1-c1nc(C(=O)Nc2ccc(N3CCN(S(N)(=O)=O)CC3)cc2)c[nH]1 [Compound 97, 5′-(4-fluorophenyl)-3′-isopropyl-N-(4-(4-sulfamoylpiperazin-1-yl)phenyl)-1H,3′H-[2,4′-biimidazole]-4-carboxamide]
++ (10-100 μM/min/mg as ++) | CC(C)n1cnc(-c2ccc(F)cc2)c1-c1nc(C(=O)Nc2ccc(N3CCN(C(N)=O)CC3)cc2)c[nH]1 [Compound 99, N-(4-(4-carbamoylpiperazin-1-yl)phenyl)-5′-(4-fluorophenyl)-3′-isopropyl-1H,3′H-[2,4′-biimidazole]-4-carboxamide]
++ (10-100 μM/min/mg as ++) | CC(C)n1cnc(-c2ccc(F)cc2)c1-c1nc(C(=O)Nc2ccc(N3CCN(CCO)CC3)cc2)c[nH]1 [Compound 117, 5′-(4-fluorophenyl)-N-(4-(4-(2-hydroxyethyl)piperazin-1-yl)phenyl)-3′-isopropyl-1H,3′H-[2,4′-biimidazole]-4-carboxamide]
++ (10-100 μM/min/mg as ++) | CN1CCN(c2ccc(NC(=O)c3c[nH]c(-c4c(-c5ccc(F)cc5)ncn4C)n3)cc2)CC1 [Compound 119, 5′-(4-fluorophenyl)-3′-methyl-N-(4-(4-methylpiperazin-1-yl)phenyl)-1H,3′H-[2,4′-biimidazole]-4-carboxamide]
++ (10-100 μM/min/mg as ++) | CN1CCN(c2ccc(NC(=O)c3c[nH]c(-c4c(-c5ccc(F)cc5)ncn4CC(F)(F)F)n3)cc2)CC1 [Compound 120, 5′-(4-fluorophenyl)-N-(4-(4-methylpiperazin-1-yl)phenyl)-3′-(2,2,2-trifluoroethyl)-1H,3′H-[2,4′-biimidazole]-4-carboxamide]
++ (10-100 μM/min/mg as ++) | CN1CCN(c2ccc(NC(=O)c3c[nH]c(-c4c(-c5ccc(F)cc5)ncn4C(F)F)n3)cc2)CC1 [Compound 130, 3′-(difluoromethyl)-5′-(4-fluorophenyl)-N-(4-(4-methylpiperazin-1-yl)phenyl)-1H,3′H-[2,4′-biimidazole]-4-carboxamide]
+ (>100 μM/min/mg as) | CN1CCN(c2ccc(NC(=O)c3c[nH]c(-c4c(-c5ccc(F)cc5)ncn4CC(C)(C)C)n3)cc2)CC1 [Compound 135, 5′-(4-fluorophenyl)-N-(4-(4-methylpiperazin-1-yl)phenyl)-3′-neopentyl-1H,3′H-[2,4′-biimidazole]-4-carboxamide]
+ (>100 μM/min/mg as) | CC(C)n1cnc(-c2ccc(C(F)(F)F)cc2)c1-c1nc(C(=O)Nc2ccc(N3CCN(C)CC3)cc2)c[nH]1 [Compound 142, 3′-isopropyl-N-(4-(4-methylpiperazin-1-yl)phenyl)-5′-(4-(trifluoromethyl)phenyl)-1H,3′H-[2,4′-biimidazole]-4-carboxamide]
++ (10-100 μM/min/mg as ++) | CN1CCN(c2ccc(NC(=O)c3c[nH]c(-c4c(-c5ccc(F)cc5)ncn4[C@H]4CC[C@H](O)CC4)n3)cc2)CC1 [Compound 159, 5′-(4-fluorophenyl)-3′-((1r,4r)-4-hydroxycyclohexyl)-N-(4-(4-methylpiperazin-1-yl)phenyl)-1H,3′H-[2,4′-biimidazole]-4-carboxamide]
+++ (1-10 μM/min/mg as +++) | C[N+]1([O-])CCN(c2ccc(NC(=O)c3c[nH]c(-c4c(-c5ccc(F)cc5)ncn4CC(F)(F)F)n3)cc2)CC1 [Compound 166, 4-(4-(5′-(4-fluorophenyl)-3′-(2,2,2-trifluoroethyl)-1H,3′H-[2,4′-biimidazole]-4-carboxamido)phenyl)-1-methylpiperazine 1-oxide]
++ (10-100 μM/min/mg as ++) | O=C(Nc1ccc(N2CCNCC2)cc1)c1c[nH]c(-c2c(-c3ccc(F)cc3)ncn2CC(F)(F)F)n1 [Compound 167, 5′-(4-fluorophenyl)-N-(4-(piperazin-1-yl)phenyl)-3′-(2,2,2-trifluoroethyl)-1H,3′H-[2,4′-biimidazole]-4-carboxamide]
+++ (1-10 μM/min/mg as +++) | CN1CCN(c2ccc(NC(=O)c3c[nH]c(-c4c(-c5ccc(F)cc5)ncn4C4CCC(O)CC4)n3)cc2)CC1 (stereo not shown) [Compound 172]
